Reference: US11965810B2, “Multiplexed on-chip impedance cytometry system and method” (UNIVERSITY OF VIRGINIA PATENT FOUNDATION, priority 2018, dated 2024)
“Also recorded” adds a separate entry of the source.

How the values were obtained:
PDXs of mPanc [1] = assay: Impedance phase contrast assessment of drug sensitivity, Gemcitabine-treated PDXs of mPanc; format: cell-based, human; conditions: standard 2D cell culture plate, over all five days, FIG. 15B
From the text: (§1) In this context, since alterations in subcellular electrophysiology in response to drug-induced apoptosis or autophagy occur earlier in the cell cycle than apparent with staining-based or imaging approaches, the exemplary method and system in using electrophysiology for kinetic monitoring may be used to track differences in stochastic cell sensitivity to various drugs. Additionally, the exemplary electrophysiology method and system require no sample preparation steps for staining or image contrast enhancement, thereby preserving the state of fragile apoptotic cells. […] As a non-limiting example, sensitivity of the electrophysiology of patient-derived pancreatic tumor xenografts (PDXs) to the chemotherapy drug gemcitabine may be used to illustrate the assay. Currently, treatment with folfirinox drug combination is the preferred first-line therapy for pancreatic cancer, but a significant fraction of patients cannot tolerate the overall drug cytotoxicity. […] On the other hand, for Control (untreated) versus Gemcitabine-treated PDXs of mPanc (FIG. 15B), the alterations are only modest over all five days. Indeed, the drug sensitivity determination based on tumor size takes 5 days.

PDXs of 608 [2] = assay: Impedance phase contrast assessment of drug sensitivity, Gemcitabine-treated PDXs of 608; format: cell-based, human; conditions: standard 2D cell culture plate, right from Day 1, more clearly Day 2-5, FIG. 15A
From the text: as §1

PDXs of 608 [3] = conditions: PDX 608; cited from earlier work
PDXs of mPanc [4] = conditions: PDX mPanc; cited from earlier work
cells (cell cycle phase) [5] = assay: Cell cycle phase assessment by impedance cytometry (ϕZ contrast) after CPT treatment; format: cell-based; conditions: FIG. 16
From the text: FIG. 16 illustrates that the exemplary impedance contrast method and system can be used to detect lineage of cells based on differences of phases of cell cycle in accordance with an illustrative embodiment. That is, differences in electrophysiology between cells in G1 phase versus those with S and G2 phase can be detected using the phase contrast metric that is sensitive to interior conductivity, which can be an indicator of nucleus size (i.e., cell cycle phase/stage).
In FIG. 16, it can be observed that increasing the proportion of cells in the G2 phase increases the proportion of cells in the high impedance phase contrast (ϕZ contrast) region between 5 nM and 10 nM CPT treatment, whereas lowering the proportion of cells in G2 phase by […] CPT treatment lowers the proportion of cells in the high impedance phase contrast (ϕZ contrast) region.
(§2) FIGS. 16A, 16D, 16G, and 16J, corresponding to subpanel (a), (d), (g), and (j) are from flow cytometry, while the analogous impedance cytometry plots are in FIGS. 16B, 16C, 16E, 16F, 16H, 16I, 16K, and 16L (corresponding to subpanel (b) and (c), (e) and (f), (h) and (i), and (k) and (l)), respectively.
(§3) As per FIG. 16, indeed, CPT treatment at 5 nM and 10 nM levels increases the proportion of the sum of S and G2 phase cells, which can be detected based on the proportion of cells in the high impedance phase contrast (ϕZ contrast) region.

cells (cell cycle phase) [6] = assay: Cell cycle phase analysis by flow cytometry after CPT treatment; format: cell-based; conditions: FIG. 16
From the text: Quantifying the proportion of cells in each phase of a cell cycle, including mitotic phases is widely carried out by flow cytometry using a stoichiometric fluorescent stain for DNA that reports the cells' position within the G1, S and G2 phases of the cell cycle. However, these stains are not compatible with live cell analysis.
as §2, §3

SMILES: Nc1ccn([C@@H]2O[C@H](CO)[C@@H](O)C2(F)F)c(=O)n1 [Gemcitabine, gemcitabine]
- impedance phase contrast, Control (untreated) versus Gemcitabine-treated (PDXs of mPanc [1]): only modest
- impedance phase contrast, Control (untreated) versus Gemcitabine-treated (PDXs of 608 [2]): statistically significant differences
- known sensitivity to gemcitabine (PDXs of 608 [3]): sensitive
- known sensitivity to gemcitabine (PDXs of mPanc [4]): relatively more resistant

SMILES: CC[C@@]1(O)C(=O)OCc2c1cc1n(c2=O)Cc2cc3ccccc3nc2-1 [CPT]
- proportion of cells in the high impedance phase contrast (ϕZ contrast) region (cells (cell cycle phase) [5]; CPT treatment at 100 nM): lowers; also recorded: substantive decrease
- proportion of cells in the high impedance phase contrast (ϕZ contrast) region (cells (cell cycle phase) [5]; between 5 nM and 10 nM CPT treatment): increases
- proportion of the sum of S and G2 phase cells (cells (cell cycle phase) [6]; CPT treatment at 5 nM): increases
- proportion of the sum of S and G2 phase cells (cells (cell cycle phase) [6]; CPT treatment at 10 nM): increases
- proportion of cells in S phase (cells (cell cycle phase) [6]; CPT treatment at 100 nM): increasing
- proportion of cells in the G2 phase (cells (cell cycle phase) [6]; CPT treatment at 100 nM): lowering; also recorded: lowers
